The source of these data is PubChem BioAssay (NCI).

Test systems include M14 melanoma; SF-268 CNS; OVCAR-4 ovarian; NCI-H460 lung; NCI-H23 lung; MDA-MB-435; K-562 leukemia; HCT-15 colon; NCI/ADR-RES ovarian; OVCAR-8 ovarian; U251 CNS; SW-620 colon; COLO 205 colon.
What all share (assay): NCI anticancer screen, dose series, 48 h

Where “and” joins values, the source holds several entries; their conditions need not be identical. Identical values can stand only once.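 Each compound was tested at five concentrations against cells in 96-well plates for 48 hours. GI50 marks 50% less growth. TGI is the concentration that stops growth completely.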 Where only a bound is given, the exact number is not on record here.

For `CCOC(=O)c1ccc(-c2ccc(Cl)cc2)[nH]1`, the TGI with M14 melanoma, in the experiment with SF-268 CNS, with OVCAR-4 ovarian, in the experiment with NCI-H460 lung, with NCI-H23 lung and in the experiment on MDA-MB-435 was greater than 10 µM throughout. Further, the TGI with K-562 leukemia, with HCT-15 colon, in the experiment on NCI/ADR-RES ovarian, in the experiment on OVCAR-8 ovarian and with U251 CNS was greater than 10 µM each time.
Take `Cc1n[n+](Cc2ccccc2)c2sc(N)nn12`: the TGI in the experiment on M14 melanoma, in the experiment on SF-268 CNS, in the experiment with OVCAR-4 ovarian, in the experiment on NCI-H23 lung, in the experiment on MDA-MB-435 and with K-562 leukemia was greater than 100 µM in each case. Besides, the TGI with HCT-15 colon, with NCI/ADR-RES ovarian, in the experiment with OVCAR-8 ovarian, in the experiment on U251 CNS, with SW-620 colon and in the experiment on COLO 205 colon was greater than 100 µM throughout.
`O=c1[nH]c2nc3ccccc3c(=O)n2/c1=C/c1cccs1`: the TGI in the experiment with M14 melanoma, with SF-268 CNS, in the experiment with OVCAR-4 ovarian, with NCI-H23 lung, in the experiment with MDA-MB-435 and in the experiment with K-562 leukemia was greater than 100 µM throughout. Besides, the TGI in the experiment on HCT-15 colon, in the experiment with NCI/ADR-RES ovarian, in the experiment with OVCAR-8 ovarian, in the experiment on U251 CNS, in the experiment with SW-620 colon and in the experiment with COLO 205 colon was greater than 100 µM in each case.
`COCn1cnc2c(=O)nc(SC)n(-c3ccccc3)c21`: the TGI in the experiment on M14 melanoma, in the experiment with SF-268 CNS, in the experiment on OVCAR-4 ovarian, in the experiment on NCI-H23 lung, with MDA-MB-435 and with K-562 leukemia was greater than 100 µM each time. Further, the TGI with HCT-15 colon, in the experiment on NCI/ADR-RES ovarian, in the experiment on OVCAR-8 ovarian, in the experiment on SW-620 colon and in the experiment with COLO 205 colon was greater than 100 µM each time.
For `CS(=O)(=O)N1CC(CCl)c2ccc(O)cc21` (stereo unspecified), the TGI with SF-268 CNS was 3.61 µM; in the experiment with OVCAR-4 ovarian, 9.9 µM; in the experiment on NCI-H460 lung it was 11.3 µM; with NCI-H23 lung it was 7.6 µM; in the experiment on MDA-MB-435 it was 3.86 µM; in the experiment on K-562 leukemia, greater than 100 µM. In addition, the TGI was 18.6 µM in the experiment on HCT-15 colon; 17.4 µM with NCI/ADR-RES ovarian; 7.33 µM in the experiment with OVCAR-8 ovarian; 10.3 µM in the experiment on U251 CNS; 11.5 µM in the experiment with SW-620 colon; 4.34 µM in the experiment with COLO 205 colon.
Regarding `COc1cccc(-c2nc(-c3cnccn3)n(C/C=C/c3ccccc3)n2)c1`, the TGI with M14 melanoma, with SF-268 CNS, in the experiment with OVCAR-4 ovarian, with NCI-H460 lung, in the experiment with NCI-H23 lung and in the experiment with MDA-MB-435 was greater than 10 µM each time. In addition, the TGI with K-562 leukemia, in the experiment with HCT-15 colon, in the experiment on NCI/ADR-RES ovarian, in the experiment with OVCAR-8 ovarian, with U251 CNS and with SW-620 colon was greater than 10 µM throughout.
Consider `CCOc1cc(NC(C)=O)ccc1C(=O)NNS(=O)(=O)c1ccc(NC(C)=O)cc1`, for which the TGI with M14 melanoma, in the experiment on SF-268 CNS, in the experiment with OVCAR-4 ovarian, in the experiment with NCI-H460 lung, with NCI-H23 lung and in the experiment on MDA-MB-435 was greater than 100 µM each time. Moreover, the TGI was greater than 100 µM with K-562 leukemia; greater than 100 µM with HCT-15 colon; greater than 100 µM with NCI/ADR-RES ovarian; greater than 100 µM in the experiment on OVCAR-8 ovarian; greater than 100 µM in the experiment on SW-620 colon; 76.2 µM in the experiment on COLO 205 colon.
As for `CN1CCN(/C(N)=C(\C#N)C(=O)Nc2ccc(Cl)cc2)CC1`, the TGI with M14 melanoma, in the experiment with NCI-H460 lung, in the experiment on NCI-H23 lung, with MDA-MB-435, in the experiment with K-562 leukemia and with HCT-15 colon was greater than 100 µM throughout. Besides, the TGI in the experiment with NCI/ADR-RES ovarian is greater than 100 µM; with OVCAR-8 ovarian it was greater than 100 µM; in the experiment on U251 CNS, greater than 100 µM; in the experiment with SW-620 colon it was greater than 100 µM; in the experiment with COLO 205 colon, 35.2 µM.
As for `O=C1C=C(Nc2ccc(S(=O)(=O)Nc3nccs3)cc2)c2ccccc2C1=O`, the TGI with M14 melanoma is 42.8 µM; in the experiment on SF-268 CNS, greater than 100 µM; in the experiment on OVCAR-4 ovarian, greater than 100 µM; in the experiment with NCI-H460 lung it was greater than 100 µM; in the experiment on NCI-H23 lung it was greater than 100 µM; in the experiment with MDA-MB-435, 33.5 µM. The TGI with K-562 leukemia is greater than 100 µM; in the experiment with HCT-15 colon it was 79.4 µM; in the experiment on NCI/ADR-RES ovarian it was 95.3 µM; in the experiment on OVCAR-8 ovarian, 47.6 µM; in the experiment with U251 CNS, 48 µM; with SW-620 colon, 43 µM.
For the compound `CC(=O)c1ccc2c(c1)C(=O)c1sc(C(C)=O)cc1C2=O`, the TGI in the experiment with M14 melanoma was 2.21 µM; with SF-268 CNS it was 3.85 µM and 3.41 µM; with NCI-H460 lung it was 7.31 µM and 11 µM; with NCI-H23 lung, 2.6 µM and 5.35 µM; in the experiment with MDA-MB-435, 2.63 µM and 0.33 µM; with K-562 leukemia, 50 µM and > 100 µM. The TGI in the experiment with HCT-15 colon was 2.18 µM; in the experiment with NCI/ADR-RES ovarian it was 2.56 µM and 1.93 µM; in the experiment with OVCAR-8 ovarian it was 1.69 µM and 2.67 µM; in the experiment on U251 CNS, 50 µM; with SW-620 colon, 50 µM; with COLO 205 colon, 7.94 µM. Also, the GI50 with SF-268 CNS was 0.819 µM; with NCI-H460 lung it was 0.362 µM; in the experiment on NCI-H23 lung, 0.607 µM; with MDA-MB-435, 0.176 µM; in the experiment on K-562 leukemia, 0.264 µM; with NCI/ADR-RES ovarian, 0.326 µM. In addition, the GI50 in the experiment on OVCAR-8 ovarian is 0.587 µM.
Take `CC(=O)OCC1OC(n2c(C)c(N=Nc3ccc(Cl)cc3)c(C)c(C#N)c2=S)C(OC(C)=O)C(OC(C)=O)C1OC(C)=O` (stereo unspecified): the TGI with M14 melanoma, with SF-268 CNS, in the experiment with OVCAR-4 ovarian, in the experiment on NCI-H460 lung, in the experiment on NCI-H23 lung and with MDA-MB-435 was greater than 100 µM each time. Further, the TGI in the experiment with K-562 leukemia is greater than 100 µM; with HCT-15 colon, greater than 100 µM; in the experiment on NCI/ADR-RES ovarian, greater than 100 µM; in the experiment on U251 CNS it was 98 µM; in the experiment on SW-620 colon it was greater than 100 µM; with COLO 205 colon it was greater than 100 µM.
